This is an account of results in patent US20120214847A1, “2-[1-PHENYL-5-HYDROXY-4a-SUBSTITUTED-HEXAHYDROCYCLOPENTA[F]INDAZOL-5-YL]ETHYL PHENYL DERIVATIVES AS GLUCOCORTICOID RECEPTOR LIGANDS” (Merck Sharp & Dohme Corp., priority 2009, published 2012).

Structures are written as SMILES. Where two headings read alike, the source gives them in different places.

For orientation: Emax means the maximal effect, on the per cent scale that the assay sets.

The assay deals with T1, human GR (Homo sapiens, UniProt P04150).
T1 construct: naturally expresses the human GR; endogenous in cells
T1 sequence (P04150 1-777): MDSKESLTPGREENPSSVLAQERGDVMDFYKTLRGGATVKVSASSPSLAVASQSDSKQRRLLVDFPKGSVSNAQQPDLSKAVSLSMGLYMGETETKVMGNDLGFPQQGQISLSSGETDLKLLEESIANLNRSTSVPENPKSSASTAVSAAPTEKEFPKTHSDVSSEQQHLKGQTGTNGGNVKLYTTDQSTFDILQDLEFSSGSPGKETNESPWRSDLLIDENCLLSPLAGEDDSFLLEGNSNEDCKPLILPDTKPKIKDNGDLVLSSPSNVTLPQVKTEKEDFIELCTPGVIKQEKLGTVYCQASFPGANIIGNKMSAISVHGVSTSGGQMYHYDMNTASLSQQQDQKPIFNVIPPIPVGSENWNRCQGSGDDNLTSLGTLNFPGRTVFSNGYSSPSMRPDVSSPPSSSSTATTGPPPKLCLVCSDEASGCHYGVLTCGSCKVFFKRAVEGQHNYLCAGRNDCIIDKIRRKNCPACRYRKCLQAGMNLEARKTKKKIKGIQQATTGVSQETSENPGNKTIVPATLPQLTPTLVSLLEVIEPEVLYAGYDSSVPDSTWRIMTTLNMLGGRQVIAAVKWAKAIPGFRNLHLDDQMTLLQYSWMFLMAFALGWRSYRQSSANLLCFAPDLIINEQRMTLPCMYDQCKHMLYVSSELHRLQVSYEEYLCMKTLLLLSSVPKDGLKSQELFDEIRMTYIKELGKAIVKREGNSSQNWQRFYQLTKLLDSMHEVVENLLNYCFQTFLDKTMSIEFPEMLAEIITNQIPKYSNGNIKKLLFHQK
The experiment in a line: Trans-activation modulation of glucocorticoid receptor (GRAMMER), MMTV-LUC reporter in A549 cells. It counts as cell-based. As to conditions: for Emax / Transactivation A549 Cells Grammer Emax (%): Emax relative to the activity obtained with 300 nM dexamethasone; for Emax: read-out: Transactivation A549 Cells Grammer Emax (%); for EC50: IP = inflection point, read-out: Transactivation A549 Cells Grammer IP.

On to `CC[C@]12Cc3cnn(-c4ccc(F)cc4)c3C=C1CC[C@@]2(O)CCc1nccc(C2CC2)c1C(=O)OC` [Example 41, Methyl 4-cyclopropyl-2-{2-[(4aS,5R)-4a-ethyl-1-(4-fluorophenyl)-5-hydroxy-1,4,4a,5,6,7-hexahydrocyclopenta[f]indazol-5-yl]ethyl}pyridine-3-carboxylate], for which, where the note is “A549, A549 cells”, the maximal effect (Emax) came out at 28%. Besides, the EC50 (A549 cells) stood at 138 nM.
As for `COc1ccnc(CC[C@]2(O)CCC3=Cc4c(cnn4-c4ccc(F)cc4)C[C@@]32C2CC2)c1C(F)C(N)=O` (stereo partly drawn) [Example 66, 2-(2-{2-[(4aR,5R)-4a-Cyclopropyl-1-(4-fluorophenyl)-5-hydroxy-1,4,4a,5,6,7-hexahydrocyclopenta[f]indazol-5-yl]ethyl}-4-methoxypyridin-3-yl)-2-fluoroacetamide], for the setting “A549 cells”, the Emax was 45% and the EC50 came to 7 nM.
Consider `N#Cc1ccccc1CC[C@]1(O)CCC2=Cc3c(cnn3-c3ccccc3)C[C@@]21C1CC1` [Example 27, 2-{2-[(4aR,5R)-4a-Cyclopropyl-5-hydroxy-1-phenyl-1,4,4a,5,6,7-hexahydrocyclopenta[f]indazol-5-yl]ethyl}benzonitrile], for which the maximum response (Emax) (A549, A549 cells) turned out to be 13%. In addition, the EC50 (A549 cells) came to 23 nM.
The corresponding values for `CCS(=O)(=O)c1ccccc1CC[C@]1(O)CCC2=Cc3c(cnn3-c3ccc(F)cc3)C[C@@]21C1CC1` [Example 59, (4aR,5R)-4a-Cyclopropyl-5-{2-[2-(ethylsulfonyl)phenyl]ethyl}-1-(4-fluorophenyl)-1,4,4a,5,6,7-hexahydrocyclopenta[f]indazol-5-ol] are 7% and 35 nM.
With `CC[C@]12Cc3cnn(-c4ccc(F)cc4)c3C=C1CC[C@@]2(O)CCc1ccccn1` [Example 16, (4aS,5R)-4a-Ethyl-1-(4-fluorophenyl)-5-[2-(pyridin-2-yl)ethyl]-1,4,4a,5,6,7-hexahydrocyclopenta[f]indazol-5-ol], under “A549, A549 cells”, the Emax was 31%. Besides, for the setting “A549 cells”, the EC50 turned out to be 80 nM.
The corresponding values for `CC[C@]12Cc3cnn(-c4ccc(F)cc4)c3C=C1CC[C@@]2(O)CCc1cccc(OC)c1C(N)=O` [Example 37, 2-{2-[(4aS,5R)-4a-Ethyl-1-(4-fluorophenyl)-5-hydroxy-1,4,4a,5,6,7-hexahydrocyclopenta[f]indazol-5-yl]ethyl}-6-methoxybenzamide] are 49% and 10 nM.
`CC[C@]12Cc3cnn(-c4ccc(F)cc4)c3C=C1CC[C@@]2(O)CC(O)c1ccc(F)cn1` (single isomer, unassigned) [Example 69b]: where the note is “A549 cells”, the “Transactivation A549 Cells Grammer Emax (%)” value was 26% and the EC50 was determined as 113 nM.
For `CC[C@]12Cc3cnn(-c4ccccc4)c3C=C1CC[C@@]2(O)CC(O)c1ccccn1` (single isomer, unassigned) [Example 67b] the same measures were 10% and 174 nM.
Turning to `CC[C@]12Cc3cnn(-c4ccc(F)cc4)c3C=C1CC[C@@]2(O)CCc1ncccc1F` [Example 17, (4aS,5R)-4a-Ethyl-1-(4-fluorophenyl)-5-[2-(3-fluoropyridin-2-yl)ethyl]-1,4,4a,5,6,7-hexahydrocyclopenta[f]indazol-5-ol], the maximum response (Emax) (A549, A549 cells) was 44%. Also, the EC50 (A549 cells) is 30 nM.
As for `CC[C@]12Cc3cnn(-c4ccc(F)cc4)c3C=C1CC[C@@]2(O)CCc1nccc(OC)c1CC(N)=O` [Example 64, 2-(2-{2-[(4aS,5R)-4a-Ethyl-1-(4-fluorophenyl)-5-hydroxy-1,4,4a,5,6,7-hexahydrocyclopenta[f]indazol-5-yl]ethyl}-4-methoxypyridin-3-yl)acetamide], for the setting “A549, A549 cells”, the maximum response (Emax) worked out at 37%. Further, for the setting “A549 cells”, the EC50 stood at 142 nM.
The corresponding values for `CC[C@]12Cc3cnn(-c4ccc(F)cc4)c3C=C1CC[C@@]2(O)CCc1cc(C(F)(F)F)ccn1` [Example 34, (4aS,5R)-4a-Ethyl-1-(4-fluorophenyl)-5-{2-[4-(trifluoromethyl)pyridin-2-yl]ethyl}-1,4,4a,5,6,7-hexahydrocyclopenta[f]indazol-5-ol] are 24% and 91 nM.
With `CC[C@]12Cc3cnn(-c4cccnc4)c3C=C1CC[C@@]2(O)CCc1ccc(F)cc1C#N` [Example 9, 2-{2-[(4aS,5R)-4a-Ethyl-5-hydroxy-1-(pyridin-3-yl)-1,4,4a,5,6,7-hexahydrocyclopenta[f]indazol-5-yl]ethyl}-5-fluorobenzonitrile], the maximal response (Emax) (A549, A549 cells) turned out to be 15%. Moreover, the EC50 (A549 cells) was determined as 76 nM.
In the case of `NC(=O)c1c(C(F)(F)F)ccnc1CC[C@]1(O)CCC2=Cc3c(cnn3-c3ccc(F)cc3)C[C@@]21C1CC1` [Example 55, 2-{2-[(4aR,5R)-4a-Cyclopropyl-1-(4-fluorophenyl)-5-hydroxy-1,4,4a,5,6,7-hexahydrocyclopenta[f]indaozol-5-yl]ethyl}-4-(trifluoromethyl)pyridine-3-carboxamide], the maximal response (Emax) (A549, A549 cells) stood at 38%. Besides, the EC50 (A549 cells) was 7 nM.
The corresponding values for `CC[C@]12Cc3cnn(-c4ccc(F)cc4)c3C=C1CC[C@@]2(O)CCc1ccc(F)cn1` [Example 19, (4aS,5R)-4a-Ethyl-1-(4-fluorophenyl)-5-[2-(5-fluoropyridin-2-yl)ethyl]-1,4,4a,5,6,7-hexahydrocyclopenta[f]indazol-5-ol] are 18% and 156 nM.
The corresponding values for `NC(=O)c1c(C2CC2)ccnc1CC[C@]1(O)CCC2=Cc3c(cnn3-c3ccc(F)cc3)C[C@@]21C1CC1` [Example 49, 4-Cyclopropyl-2-{2-[(4aR,5R)-4a-cyclopropyl-1-(4-fluorophenyl)-5-hydroxy-1,4,4a,5,6,7-hexahydrocyclopenta[f]indazol-5-yl]ethyl}pyridine-3-carboxamide] are 30% and 9 nM.
On to `CC[C@]12Cc3cnn(-c4ccc(F)cc4)c3C=C1CC[C@@]2(O)CC(O)c1ccc(F)cn1` (single isomer, unassigned) [Example 69a], for which, under “A549, A549 cells”, the maximal response (Emax) worked out at 33%. Also, where the note is “A549 cells”, the EC50 is 170 nM.
For `OC(C[C@]1(O)CCC2=Cc3c(cnn3-c3ccc(F)cc3)C[C@@]21C1CC1)c1ccc(F)cn1` (single isomer, unassigned) [Example 79a] the same measures were 10% and 186 nM.
For `NC(=O)c1cccnc1CC[C@]1(O)CCC2=Cc3c(cnn3-c3ccc(F)cc3)C[C@@]21C1CC1` [Example 1, 2-{2-[(4aR,5R)-4a-Cyclopropyl-1-(4-fluorophenyl)-5-hydroxy-1,4,4a,5,6,7-hexahydrocyclopenta[f]indazol-5-yl]ethyl}pyridine-3-carboxamide] the same measures were 27% and 61 nM.
With `O[C@@]1(CCc2cc(C(F)(F)F)ccn2)CCC2=Cc3c(cnn3-c3ccc(F)cc3)C[C@@]21C1CC1` [Example 32, (4aR,5R)-4a-Cyclopropyl-1-(4-fluorophenyl)-5-{2-[4-(trifluoromethyl)pyridin-2-yl]ethyl}-1,4,4a,5,6,7-hexahydrocyclopenta[f]indazol-5-ol], the Emax (A549, A549 cells) was found to be 11%. The EC50 (A549 cells) turned out to be 65 nM.
For `CC[C@]12Cc3cnn(-c4ccc(F)cc4)c3C=C1CC[C@@]2(O)CCc1ccccc1C(O)C(N)=O` (stereo partly drawn) [Example 25, 2-(2-{2-[(4aS,5R)-4a-Ethyl-1-(4-fluorophenyl)-5-hydroxy-1,4,4a,5,6,7-hexahydrocyclopenta[f]indazol-5-yl]ethyl}phenyl)-2-hydroxyacetamide], for the setting “A549 cells”, the “Transactivation A549 Cells Grammer Emax (%)” value was found to be 22% and the EC50 is 195 nM.
In the case of `Cc1ccnc(CC[C@]2(O)CCC3=Cc4c(cnn4-c4ccc(F)cc4)C[C@@]32C2CC2)c1` [Example 36, (4aR,5R)-4a-Cyclopropyl-1-(4-fluorophenyl)-5-[2-(4-methylpyridin-2-yl)ethyl]-1,4,4a,5,6,7-hexahydrocyclopenta[f]indazol-5-ol], where the note is “A549, A549 cells”, the maximum response (Emax) was found to be 11%. Besides, the EC50 (A549 cells) came out at 59 nM.
For `NC(=O)c1cc(F)cnc1CC[C@]1(O)CCC2=Cc3c(cnn3-c3ccc(F)cc3)C[C@@]21C1CC1` [Example 4, 2-{2-[(4aR,5R)-4a-Cyclopropyl-1-(4-fluorophenyl)-5-hydroxy-1,4,4a,5,6,7-hexahydrocyclopenta[f]indazol-5-yl]ethyl}-5-fluoropyridine-3-carboxamide] the same measures were 14% and 116 nM.
Regarding `CC[C@]12Cc3cnn(-c4ccc(F)cc4)c3C=C1CC[C@@]2(O)CC(O)c1ccccn1` (stereo partly drawn) [Example 68, (4aS,5R)-4a-Ethyl-1-(4-fluorophenyl)-5-[2-hydroxy-2-(pyridin-2-yl)ethyl]-1,4,4a,5,6,7-hexahydrocyclopenta[f]indazol-5-ol], for the setting “A549, A549 cells”, the Emax was determined as 21%. Besides, the EC50 (A549 cells) was 49 nM.
